Measurements from PubChem BioAssay AID248 (DTP/NCI, 2004).
Several values for one entry are separate records, joined by “and”; a condition that tells them apart may be missing. Equal entries are not always repeated. Toxic doses and inconclusive results are not listed.

Tested on: L1210 leukemia ip in BDF1 mice, survival T/C
Assay: NCI In Vivo Anticancer Drug Screen. Data for tumor model L1210 Leukemia (intraperitoneal) in B6D2F1 (BDF1) mice
Conditions: higher = longer survival
Summary of the method: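 Read-out is survival time, reported as the treated-group measurement over the vehicle-control measurement.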

Nc1nc2n[nH]nc2c(=O)[nH]1
T/C (endpoint: mean survival time, dose: 87.0 mg/kg/injection, schedule: Q07DX Z (ip), vehicle: water): 121 % of control
T/C (endpoint: mean survival time, dose: 89.4 mg/kg/injection, schedule: Q01DX Z (ip), vehicle: carboxymethylcellulose (CMC)): 154 % of control
T/C (endpoint: mean survival time, dose: 90.0 mg/kg/injection, schedule: Q01DX009 (ip), vehicle: other): 150 % of control
T/C (endpoint: mean survival time, dose: 90.0 mg/kg/injection, schedule: Q01DX015 (ip), vehicle: carboxymethylcellulose (CMC)): 155 % of control
T/C (endpoint: mean survival time, dose: 90.0 mg/kg/injection, schedule: Q## X015 (ip), vehicle: carboxymethylcellulose (CMC)): 155 % of control
T/C (endpoint: mean survival time, dose: 100.0 mg/kg/injection, schedule: Q01DX001 (ip), vehicle: steriod suspending solution): 118 % of control
T/C (endpoint: mean survival time, dose: 100.0 mg/kg/injection, schedule: Q01DX009 (ip), vehicle: other): 152 % of control
T/C (endpoint: mean survival time, dose: 100.0 mg/kg/injection, schedule: Q01DX009 (ip), vehicle: water): 154 % of control
T/C (endpoint: mean survival time, dose: 100.0 mg/kg/injection, schedule: Q01DX Z (im), vehicle: water): 160 % of control
T/C (endpoint: mean survival time, dose: 100.0 mg/kg/injection, schedule: Q#A X Z (ip), vehicle: carboxymethylcellulose (CMC)): 115 % of control
T/C (endpoint: mean survival time, dose: 111.75 mg/kg/injection, schedule: Q01DX Z (ip), vehicle: carboxymethylcellulose (CMC)): 160 % of control
T/C (endpoint: mean survival time, dose: 125.0 mg/kg/injection, schedule: Q01DX001 (sc), vehicle: carboxymethylcellulose (CMC)): 109 % of control
T/C (endpoint: mean survival time, dose: 125.0 mg/kg/injection, schedule: Q## X003 (ip), vehicle: carboxymethylcellulose (CMC)): 152 % of control and 155 % of control
T/C (endpoint: mean survival time, dose: 135.0 mg/kg/injection, schedule: Q01DX015 (ip), vehicle: carboxymethylcellulose (CMC)): 152 % of control
T/C (endpoint: mean survival time, dose: 135.0 mg/kg/injection, schedule: Q## X015 (ip), vehicle: carboxymethylcellulose (CMC)): 152 % of control
T/C (endpoint: mean survival time, dose: 150.0 mg/kg/injection, schedule: Q01DX009 (sc), vehicle: carboxymethylcellulose (CMC)): 150 % of control
T/C (endpoint: mean survival time, dose: 150.0 mg/kg/injection, schedule: Q01DX Z (ip), vehicle: carboxymethylcellulose (CMC)): 156 % of control
T/C (endpoint: mean survival time, dose: 175.0 mg/kg/injection, schedule: Q01DX001 (ip), vehicle: water): 119 % of control and 121 % of control
T/C (endpoint: mean survival time, dose: 175.0 mg/kg/injection, schedule: Q07DX Z (ip), vehicle: water): 116 % of control
T/C (endpoint: mean survival time, dose: 200.0 mg/kg/injection, schedule: Q01DX001 (ip), vehicle: steriod suspending solution): 120 % of control
T/C (endpoint: mean survival time, dose: 200.0 mg/kg/injection, schedule: Q01DX009 (ip), vehicle: saline): 102 % of control
T/C (endpoint: mean survival time, dose: 200.0 mg/kg/injection, schedule: Q01DX009 (ip), vehicle: water): 152 % of control and 160 % of control
T/C (endpoint: mean survival time, dose: 200.0 mg/kg/injection, schedule: Q01DX Z (im), vehicle: carboxymethylcellulose (CMC)): 103 % of control
T/C (endpoint: mean survival time, dose: 200.0 mg/kg/injection, schedule: Q01DX Z (sc), vehicle: carboxymethylcellulose (CMC)): 124 % of control
T/C (endpoint: mean survival time, dose: 202.0 mg/kg/injection, schedule: Q01DX009 (ip), vehicle: other): 98 % of control
T/C (endpoint: mean survival time, dose: 202.5 mg/kg/injection, schedule: Q01DX015 (ip), vehicle: carboxymethylcellulose (CMC)): 97 % of control
T/C (endpoint: mean survival time, dose: 202.5 mg/kg/injection, schedule: Q## X015 (ip), vehicle: carboxymethylcellulose (CMC)): 97 % of control
T/C (endpoint: mean survival time, dose: 223.5 mg/kg/injection, schedule: Q01DX Z (ip), vehicle: carboxymethylcellulose (CMC)): 107 % of control
T/C (endpoint: mean survival time, dose: 225.0 mg/kg/injection, schedule: Q01DX015 (ip), vehicle: clinical formulation): 156 % of control
T/C (endpoint: mean survival time, dose: 250.0 mg/kg/injection, schedule: Q01DX001 (sc), vehicle: carboxymethylcellulose (CMC)): 113 % of control
T/C (endpoint: mean survival time, dose: 250.0 mg/kg/injection, schedule: Q06DX003 (ip), vehicle: carboxymethylcellulose (CMC)): 151 % of control
T/C (endpoint: mean survival time, dose: 250.0 mg/kg/injection, schedule: Q## X003 (ip), vehicle: carboxymethylcellulose (CMC)): 155 % of control
T/C (endpoint: mean survival time, dose: 300.0 mg/kg/injection, schedule: Q01DX009 (ip), vehicle: other): 119 % of control
T/C (endpoint: mean survival time, dose: 300.0 mg/kg/injection, schedule: Q01DX009 (sc), vehicle: carboxymethylcellulose (CMC)): 151 % of control
T/C (endpoint: mean survival time, dose: 300.0 mg/kg/injection, schedule: Q03DX Z (ip), vehicle: water): 121 % of control
T/C (endpoint: mean survival time, dose: 350.0 mg/kg/injection, schedule: Q01DX001 (ip), vehicle: water): 116 % of control and 121 % of control
T/C (endpoint: mean survival time, dose: 350.0 mg/kg/injection, schedule: Q07DX Z (ip), vehicle: water): 109 % of control
T/C (endpoint: mean survival time, dose: 400.0 mg/kg/injection, schedule: Q01DX Z (sc), vehicle: carboxymethylcellulose (CMC)): 100 % of control
T/C (endpoint: mean survival time, dose: 500.0 mg/kg/injection, schedule: Q01DX001 (ip), vehicle: carboxymethylcellulose (CMC)): 150 % of control
T/C (endpoint: mean survival time, dose: 500.0 mg/kg/injection, schedule: Q## X003 (ip), vehicle: carboxymethylcellulose (CMC)): 95 % of control
T/C (endpoint: mean survival time, dose: 700.0 mg/kg/injection, schedule: Q01DX001 (ip), vehicle: water): 97 % of control
T/C (endpoint: mean survival time, dose: 750.0 mg/kg/injection, schedule: Q10DX003 (ip), vehicle: carboxymethylcellulose (CMC)): 157 % of control
T/C (endpoint: median survival time, dose: 12.5 mg/kg/injection, schedule: Q01DX009 (ip), vehicle: other): 122 % of control
T/C (endpoint: median survival time, dose: 25.0 mg/kg/injection, schedule: Q01DX009 (ip), vehicle: other): 122 % of control
T/C (endpoint: median survival time, dose: 200.0 mg/kg/injection, schedule: Q01DX009 (ip), vehicle: other): 150 % of control
